This note sets out measurements from patent US20100256123A1, “P2X4 RECEPTOR ANTAGONIST” (NIPPON CHEMIPHAR CO., LTD., priority 2006, published 2010).

The test has as its target T1, human P2X4 receptor (Homo sapiens, UniProt Q99571).
T1 sequence (Q99571 1-388): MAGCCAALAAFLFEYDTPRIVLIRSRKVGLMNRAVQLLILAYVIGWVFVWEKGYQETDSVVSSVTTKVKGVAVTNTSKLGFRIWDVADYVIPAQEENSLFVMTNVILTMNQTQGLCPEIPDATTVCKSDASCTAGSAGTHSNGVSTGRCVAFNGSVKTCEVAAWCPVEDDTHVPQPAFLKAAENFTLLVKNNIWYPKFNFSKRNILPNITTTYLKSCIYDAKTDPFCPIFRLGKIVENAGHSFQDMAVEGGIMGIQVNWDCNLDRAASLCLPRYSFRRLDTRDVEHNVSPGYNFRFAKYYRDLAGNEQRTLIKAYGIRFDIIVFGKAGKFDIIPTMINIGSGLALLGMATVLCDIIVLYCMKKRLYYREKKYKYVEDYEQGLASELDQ
The experiment in a line: P2X4 receptor antagonism: ATP-induced calcium change (Fura2-AM) in 1321N1 cells stably expressing human P2X4 receptor. The note with it: ATP (10 μm)-induced maximal calcium change = 100% control, compound applied 10 minutes before ATP; for Inhibition ratio % (at 10^−5 M): Pharmacological Experimental 2. It counts as cell-based. How it is done:
The P2X4 receptor antagonisms of the compounds according to the invention were determined in the following manner.
(§1) 1321N1 cells were transfected human P2X4 receptor-encoding expression vector using a EUGENE 6 transfection reagent (Roche). After cultivation of one week, it was confirmed that P2X4 receptor was stably expressed. Cells were loaded with Fura2-AM calcium fluorescent dye (SIGMA) and the fluorescence changes were monitored using Aqua-Cosmos (Hamamatsu Photonics). ATP (10 μm)-induced maximal […] calcium change was defined as 100% of control response to calculate the inhibition percentage of test compounds at each concentration. Test compounds were treated onto cells 10 minutes before ATP stimulation.
as §1, with “FuGENE” for “EUGENE”
The experimental procedures of Example 10 were repeated.

SMILES strings stand for the structures.

In the case of `O=C1CN=C(c2cccc(O)c2)c2ccc3ccccc3c2N1` [Example 2, 5-(3-Hydroxyphenyl)-1,3-dihydro-2H-naptho-[1,2-e]-1,4-diazepin-2-one], the inhibition ratio (at 10^−5M, Pharmacological Experimental 1) is given as 69%.
On to `O=C1CN=C(c2ccc(O)cc2)c2ccc3ccccc3c2N1` [Example 4, 5-(4-Hydroxyphenyl)-1,3-dihydro-2H-naptho-[1,2-e]-1,4-diazepin-2-one], for which the “Inhibition ratio % (at 10^−5 M)” value was determined as 53%.
Regarding `O=C1CN=C(c2ccc(O)c(O)c2)c2ccc3ccccc3c2N1` [Example 9, 5-(3,4-Dihydroxyphenyl)-1,3-dihydro-2H-naptho[1,2-e]-1,4-diazepin-2-one], the “Inhibition ratio % (at 10^−5 M)” value was 63%.
